Test results reported in the NIST ThermoML archive (doi:10.1016/j.jct.2016.11.022).
Numbers after ± are expanded uncertainties.

Tests used:
[1] = DTA
[2] = Molar enthalpy of transition or fusion; conditions: DSC

Normal melting temperature ([1]; Crystal) [°C]	Molar enthalpy of transition or fusion ([2]; Crystal) [kcal/mol]	Normal melting temperature ([1]; Metastable crystal) [°C]	Molar enthalpy of transition or fusion ([2]; Metastable crystal) [kcal/mol]	Structure (SMILES)
69.47 ± 1.1	14.4 ± 1.46			CCCCCCCCCCCCCCCCCC(=O)O [octadecanoic acid]
80.62 ± 1.1	3.26 ± 0.335	70.14 ± 1.1	2.78 ± 0.287	CC(N)=O [ethanamide]
